Assay results published in PubChem BioAssay (NCI).
Values joined by “and” are separate entries in the source; they are usually repeats but may differ in a detail not shown here. Equal entries are not always repeated.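 Values below derive from 48-hour exposures of cells grown in 96-well plates, with endpoints linearly interpolated between the two concentrations bracketing the appropriate inhibition level. GI50: concentration for 50% inhibition of growth. TGI is the concentration that stops growth completely.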

Columns and labels:
Assay in all cases: NCI tumour cell line growth inhibition, 48 h
[1] = tested on: BT-549 breast
[2] = tested on: HCT-116 colon
[3] = tested on: IGROV1 ovarian
[4] = tested on: MCF7 breast
[5] = tested on: MDA-MB-231 breast
[6] = tested on: MDA-N
[7] = tested on: OVCAR-5 ovarian
[8] = tested on: PC-3 prostate
[9] = tested on: RXF 393 renal
[10] = tested on: SK-MEL-2 melanoma
[11] = tested on: SNB-19 CNS
[12] = tested on: UACC-257 melanoma

Row | SMILES | TGI [1] | TGI [2] | TGI [3] | TGI [4] | TGI [5] | TGI [6] | TGI [7] | TGI [8] | TGI [9] | TGI [10] | TGI [11] | TGI [12] | GI50 [1]
1 | c1ccc(C(NCC2CCO2)(c2ccccc2)c2ccccc2)cc1 (stereo unspecified) | 38.7 µM | 56 µM | 32.7 µM | 31.7 µM | 70.1 µM | 54.5 µM | 30.5 µM | 31.6 µM | 35 µM | 42.5 µM | 27.6 µM | 39.5 µM | –
2 | O=C1CC(c2ccccc2)C2(C(=O)NC(=S)NC2=O)C(c2ccccc2)C1 (stereo unspecified) | > 75 µM | > 75 µM | > 75 µM | > 75 µM | > 75 µM | > 75 µM | > 75 µM | > 75 µM | > 75 µM | > 75 µM | > 75 µM | > 75 µM | –
3 | COc1cc2c(cc1OC)C(=O)N(c1ccc(O)cc1)C2=O | > 100 µM | > 100 µM | > 100 µM | > 100 µM | > 100 µM | > 100 µM | > 100 µM | > 100 µM | > 100 µM | > 100 µM | > 100 µM | > 100 µM | –
4 | NC(N)=NC(N)=Nc1ccc(S(=O)(=O)O)cc1 | > 100 µM | > 100 µM | > 100 µM | > 100 µM | > 100 µM | > 100 µM | > 100 µM | > 100 µM | > 100 µM | > 100 µM | > 100 µM | > 100 µM | –
5 | O=S(=O)(Nc1nc2ccccc2nc1Nc1ccc2ccccc2c1)c1ccccc1 | > 80.1 µM | 24.8 µM | > 57.9 µM | > 100 µM | > 100 µM | > 100 µM | 81.2 µM | > 37.2 µM | 86.1 µM | 14 µM | > 100 µM | > 100 µM | –
6 | Cc1ccc(SC2C(=O)C3CC(OCc4ccccc4)C2(C)C3(C)C)cc1 (stereo unspecified) | > 100 µM | > 100 µM | > 100 µM | > 100 µM | > 100 µM | > 100 µM | > 100 µM | > 100 µM | > 100 µM | > 100 µM | > 100 µM | – | –
7 | O=C(c1nc2ccc([N+](=O)[O-])cc2[nH]c1=O)C(O)c1ccc2c(c1)OCO2 (stereo unspecified) | > 100 µM | > 100 µM | > 100 µM | > 100 µM | > 100 µM | > 100 µM | > 100 µM | > 100 µM | > 100 µM | > 100 µM | > 100 µM | > 100 µM | –
8 | COc1ccc2nc(-c3ccccc3)cc(OCC(=O)O)c2c1 | > 100 µM | > 100 µM | > 100 µM | > 100 µM | > 100 µM | > 100 µM | > 100 µM | > 100 µM | – | > 100 µM | > 100 µM | > 100 µM | –
9 | CC[C@@]1(O)C(=O)OCc2c1cc1n(c2=O)Cc2c-1nc1ccccc1c2/C=N\NC(=O)C1CCCN1 (stereo partly specified) | > 100 µM | 21.2 µM | > 96.6 µM | 18.4 µM | > 100 µM | > 100 µM | > 73.2 µM | > 100 µM | 2.1 µM | 58.4 µM | 2.5 µM | > 95.4 µM | –
10 | CCN1CCC(O)(c2ccc(Oc3ccc(F)cc3)cc2)C(C(=O)c2ccc(Oc3ccc(F)cc3)cc2)C1 (stereo unspecified) | 29.1 µM | 27.4 µM | 24.1 µM | 26 µM | 26.6 µM | 30.6 µM | 28.5 µM | 26.4 µM | 25.8 µM | 31.6 µM | 29.6 µM | 29.8 µM | –
11 | Cc1nc(CC#N)n[nH]1 | > 100 µM | > 100 µM | > 100 µM | > 100 µM | > 100 µM | > 100 µM | > 100 µM | > 100 µM | > 100 µM | > 100 µM | > 100 µM | > 100 µM | –
12 | C=C(C(=O)O)[C@@H]1C[C@@H]2O[C@H]1[C@@H](O)[C@@H](C)CCCC(C)=CCC[C@@]2(C)O | > 100 µM | > 100 µM | > 100 µM | > 100 µM | > 100 µM | > 100 µM | > 100 µM | > 100 µM | > 100 µM | > 100 µM | > 100 µM | > 100 µM | 33.5 µM and > 100 µM
13 | COC(=O)C1Cc2cc3c(cc2C1=O)CCCC3 (stereo unspecified) | > 100 µM | > 100 µM | > 100 µM | > 100 µM | > 100 µM | > 100 µM | > 100 µM | > 100 µM | – | > 100 µM | > 100 µM | > 100 µM | –
14 | O=C(/C=C/c1ccc(-c2ccccc2)cc1)NCc1ccc(C(=O)NCc2ccccc2)cc1 | > 100 µM | > 100 µM | > 100 µM | > 100 µM | > 100 µM | > 100 µM | > 100 µM | > 100 µM | 67.3 µM | > 100 µM | > 100 µM | > 100 µM | –
